Source: patent publication US7557100B2, “Antibacterial agents” (Pfizer Inc., priority 2005, dated 2009)
Values after ≈ are worked out from the molar mass of the structure shown.

Tests used:
[1] = test system: H. influenzae HI-3542; test: Microbroth dilution MIC testing against H. influenzae; assay type: cell-based; conditions: HI3542, H. influenzae 3542, Haemophilus Test Medium, 35° C., 16 to 24 hours, read-out: Minimum Inhibitory Concentration H. influenzae 3542
Experimental: (§1) In this example, the in vitro antibacterial activity of selected compounds was determined against S. aureus and H. influenzae. Except for clarifying or modifying statements, MIC testing followed procedures recommended by the NCCLS^1-2 or followed the descriptions cited below.
(§2) Bacterial Cultures At least the following organisms are included in the screen: Staphylococcus aureus SA-1 (UC-76) and H. influenzae HI-3542. Incubations were at 35° C. Stock bacterial cultures were maintained on Tryptic Soy Agar containing 5% Sheep Blood (BD, Becton Dickinson Microbiology Systems, Cockeysville, Md.), anaerobes were maintained on Anaerobic Blood Agar plates—CDC Formulation (BD), and fastidious organisms were maintained on Chocolate Agar II Plates (BD). Specific conditions of handling are listed below.
Haemophilus was maintained on Chocolate Agar II Plates at room temperature in a candle jar providing a 3 5% CO2 atmosphere.
(§3) Standardized Organism Inocula Frozen stock cultures were used as the initial source of organisms for performing microbroth dilution MIC testing. Stock cultures were passed on their standard growth medium for at least 1 growth cycle (18 24 hours) prior to their use.
(§4) Most bacteria, unless otherwise noted, were prepared directly from agar plates in 10 mL aliquots of the appropriate broth medium. Bacterial cultures were adjusted to the opacity of a 0.5 McFarland Standard (optical density value of 0.28-0.33 on a Perkin-Elmer Lambda EZ150 Spectrophotometer Wellesley, Mass., set at a wavelength of 600 nm).). The adjusted cultures were diluted 400 fold (0.25 mL inoculum+100 mL broth) in growth media to produce a starting suspension of approximately 5×10^5 colony forming units (CFU)/mL. Unless otherwise noted, bacterial strains were tested in cation adjusted Mueller Hinton Broth (CAMHB).
Haemophilus influenzae strains were grown on Chocolate Agar II Plates and tested in Haemophilus Test Medium (Remel, Lenexa, Kans.).
(§5) Test Compound (“Drug”) Preparation Compounds were solubilized in DMSO. Drug stock solutions were prepared on the day of testing. Drugs were weight corrected for assay content where necessary.
(§6) Drug Dilution Tray Preparation Microbroth dilution stock plates were prepared in two dilution series, 64 to 0.06 μg drug/mL and 0.25 to 0.00025 μg drug/mL. For the high concentration series, 200 μL of stock solution (2 mg/mL) was added to duplicate rows of a 96-well microtiter plate. This was used as the first well in the dilution series. Serial two-fold decremental dilutions were made using a BioMek FX robot (Beckman Coulter Inc., Fullerton, Calif.) with 10 of the remaining 11 wells, each of which contained 100 μL of the appropriate solvent/diluent. Row 12 contained solvent/diluent only and served as the control. For tube one of the low concentration series, 200 μL of an 8 μg/mL stock was added to duplicate rows of a 96-well plate. Serial two-fold dilutions were made as described above.
(§7) Daughter plates were spotted (3.2 μL/well) from the stock plates listed above using the BioMek FX robot and were either used immediately or frozen at −70° C. until use.
(§8) Plate Inoculation Aerobic organisms were inoculated (100 μL volumes) into the thawed plates using the BioMek FX robot. The inoculated plates were placed in stacks of no more than 5 and covered with an empty plate. These plates were incubated 16 to 24 hours in ambient atmosphere according to CLSI guidelines^2.
Reading the Test After inoculation and incubation, the degree of bacterial growth was estimated visually with the aid of a Test Reading Mirror (Dynex Technologies 220 16) in a darkened room with a single light shining directly through the top of the microbroth tray. The MIC was the lowest concentration of drug that prevented macroscopically visible growth under the conditions of the test. Testing was performed in duplicate. When the MIC values in duplicate tests varied by 1 well (2 fold), the lower values were reported. If the MICs varied by 2 dilutions, the middle value was reported. […]

[2] = test system: Staphylococcus aureus SA-1 (UC-76); test: Microbroth dilution MIC testing against S. aureus; assay type: cell-based; conditions: S. aureus UC76, CAMHB, 35° C., 16 to 24 hours, read-out: Minimum Inhibitory Concentration S. aureus UC76
Experimental: as §1, §2, §3, §4, §5, §6, §7, §8
Reading the Test After inoculation and incubation, the degree of bacterial growth was estimated visually with the aid of a Test Reading Mirror (Dynex Technologies 220 16) in a darkened room with a single light shining directly through the top of the microbroth tray. The MIC was the lowest concentration of drug that prevented macroscopically visible growth under the conditions of the test. Testing was performed in duplicate. When the MIC values in duplicate tests varied by 1 well (2 fold), the lower values were reported. If the MICs varied by 2 dilutions, the middle value was reported. Greater than this 4 fold variance called for the test to be repeated, after which a similar determination was applied to all values.

SMILES | MIC [1] [µg/mL] | MIC [2] [µg/mL]
C[C@H]1CN2c3c(cc(-c4cnccn4)c(F)c3F)CC3(C(=O)NC(=O)NC3=O)[C@@H]2[C@@H](C)O1 (relative stereo) [Compound 1, rel-(2S,4R,4aR)-9,10-difluoro-2,4-dimethyl-8-pyrazin-2-yl-1,2,4,4a-tetrahydro-2′H,6H-spiro[1,4-oxazino[4,3-a]quinoline-5,5′-pyrimidine]-2′,4′,6′(1′H,3′H)-trione] | 1 (≈ 2.26 µM) | 
C[C@H]1CN2c3c(F)cc(-c4cnccn4)cc3CC3(C(=O)NC(=O)NC3=O)[C@@H]2[C@@H](C)O1 (relative stereo) [Compound 15, rel-(2S,4R,4aR)-10-fluoro-2,4-dimethyl-8-pyrazin-2-yl-1,2,4,4a-tetrahydro-2′H,6H-spiro[1,4-oxazino[4,3-a]quinoline-5,5′-pyrimidine]-2′,4′,6′(1′H,3′H)-trione] | 4 (≈ 9.4 µM) | 1 (≈ 2.35 µM)
C[C@H]1CN2c3c(cc(-c4cnccn4)c(N4CCOCC4)c3F)CC3(C(=O)NC(=O)NC3=O)[C@@H]2[C@@H](C)O1 (relative stereo) [Compound 16, rel-(2S,4R,4aR)-10-fluoro-2,4-dimethyl-9-morpholin-4-yl-8-pyrazin-2-yl-1,2,4,4a-tetrahydro-2′H,6H-spiro[1,4-oxazino[4,3-a]quinoline-5,5′-pyrimidine]-2′,4′,6′(1′H,3′H)-trione] | > 64 | > 64
COCCOc1c(-c2cnccn2)cc2c(c1F)N1C[C@H](C)O[C@H](C)[C@H]1C1(C2)C(=O)NC(=O)NC1=O (relative stereo) [Compound 17, rel-(2S,4R,4aR)-10-fluoro-9-(2-methoxyethoxy)-2,4-dimethyl-8-pyrazin-2-yl-1,2,4,4a-tetrahydro-2′H,6H-spiro[1,4-oxazino[4,3-a]quinoline-5,5′-pyrimidine]-2′,4′,6′(1′H,3′H)-trione] | > 64 | > 64
C[C@H]1CN2c3c(cc(-c4cnccn4)c(OCCF)c3F)CC3(C(=O)NC(=O)NC3=O)[C@@H]2[C@@H](C)O1 (relative stereo) [Compound 18, rel-(2S,4R,4aR)-10-fluoro-9-(2-fluoroethoxy)-2,4-dimethyl-8-pyrazin-2-yl-1,2,4,4a-tetrahydro-2′H,6H-spiro[1,4-oxazino[4,3-a]quinoline-5,5′-pyrimidine]-2′,4′,6′(1′H,3′H)-trione] | > 64 | > 64
C[C@H]1CN2c3cc(F)c(-c4cnccn4)cc3CC3(C(=O)NC(=O)NC3=O)[C@@H]2[C@@H](C)O1 (relative stereo) [Compound 19, rel-(2S,4R,4aR)-9-dluoro-2,4-dimethyl-8-pyrazin-2-yl-1,2,4,4a-tetrahydro-2′H,6H-spiro[1,4-oxazino[4,3-a]quinoline-5,5′-pyrimidine]-2′,4′,6′(1′H,3′H)-trione] | 2 (≈ 4.7 µM) | 2 (≈ 4.7 µM)
C[C@H]1CN2c3ccc(-c4cnccn4)cc3CC3(C(=O)NC(=O)NC3=O)[C@@H]2[C@@H](C)O1 (relative stereo) [Compound 20, rel-(2S,4R,4aR)-2,4-dimethyl-8-pyrazin-2-yl-1,2,4,4a-tetrahydro-2′H,6H-spiro[1,4-oxazino[4,3-a]quinoline-5,5′-pyrimidine]-2′,4′,6′(1′H,3′H)-trione] | 2 (≈ 4.91 µM) | 4 (≈ 9.82 µM)
COc1nccnc1-c1ccc2c(c1)CC1(C(=O)NC(=O)NC1=O)[C@@H]1[C@@H](C)O[C@@H](C)CN21 (relative stereo) [Compound 21, rel-(2S,4R,4aR)-8-(3-methoxypyrazin-2-yl)-2,4-dimethyl-1,2,4,4a-tetrahydro-2′H,6H-spiro[1,4-oxazino[4,3-a]quinoline-5,5′-pyrimidine]-2′,4′,6′(1′H,3′H)-trione] | 32 (≈ 73.2 µM) | 16 (≈ 36.6 µM)
C[C@@H]1CN2c3c(cc(-c4cnccn4)c(F)c3F)CC3(C(=O)NC(=O)NC3=O)[C@H]2[C@H](C)O1 [Compound 2, (2R,4S,4aS)-9,10-difluoro-2,4-dimethyl-8-pyrazin-2-yl-1,2,4,4a-tetrahydro-2′H,6H-spiro[1,4-oxazino[4,3-a]quinoline-5,5′-pyrimidine]-2′,4′,6′(1′H,3′H)-trione] | 0.5 (≈ 1.13 µM) | 0.125 (≈ 0.282 µM)
C[C@H]1CN2c3c(cc(-c4cnccn4)c(F)c3F)CC3(C(=O)NC(=O)NC3=O)[C@@H]2[C@@H](C)O1 [Compound 3, (2S,4R,4aR)-9,10-difluoro-2,4-dimethyl-8-pyrazin-2-yl-1,2,4,4a-tetrahydro-2′H,6H-spiro[1,4-oxazino[4,3-a]quinoline-5,5′-pyrimidine]-2′,4′,6′(1′H,3′H)-trione] | > 64 | 
C[C@@H]1CN2c3c(cc(-c4cnccn4)c(F)c3F)CC3(C(=O)N(CN4CCOCC4)C(=O)N(CN4CCOCC4)C3=O)[C@H]2[C@H](C)O1 [Compound 4, (2R,4S,4aS)-9,10-difluoro-2,4-dimethyl-1′,3′-bis(morpholin-4-ylmethyl)-8-pyrazin-2-yl-1,2,4,4a-tetrahydro-2′H,6H-spiro[1,4-oxazino[4,3-a]quinoline-5,5′-pyrimidine]-2′,4′,6′(1′H,3′H)-trione] | 0.5 (≈ 0.779 µM) | 0.25 (≈ 0.39 µM)
C[C@@H]1CN2c3c(cc(-c4cnccn4)c(F)c3F)CC3(C(=O)N(CN4CCN(C)CC4)C(=O)N(CN4CCN(C)CC4)C3=O)[C@H]2[C@H](C)O1 [Compound 5, (2R,4S,4aS)-9,10-difluoro-2,4-dimethyl-1′,3′-bis[(4-methylpiperazin-1-yl)methyl]-8-pyrazin-2-yl-1,2,4,4a-tetrahydro-2′H,6H-spiro[1,4-oxazino[4,3-a]quinoline-5,5′-pyrimidine]-2′,4′,6′(1′H,3′H)-trione] | 1 (≈ 1.5 µM) | 0.5 (≈ 0.749 µM)
C[C@@H]1CN2c3c(cc(-c4c[n+]([O-])ccn4)c(F)c3F)CC3(C(=O)NC(=O)NC3=O)[C@H]2[C@H](C)O1 [Compound 6, (2R,4S,4aS)-9,10-difluoro-2,4-dimethyl-8-(4-oxidopyrazinpyrazin-2-yl)-1,2,4,4a-tetrahydro-2′H,6H-spiro[1,4-oxazino[4,3-a]quinoline-5,5′-pyrimidine]-2′,4′,6′(1′H,3′H)-trione] | 0.25 (≈ 0.544 µM) | 0.5 (≈ 1.09 µM)
C[C@@H]1CN2c3c(cc(-c4cnc(N)cn4)c(F)c3F)CC3(C(=O)NC(=O)NC3=O)[C@H]2[C@H](C)O1 [Compound 22, (2R,4S,4aS)-8-(5-aminopyrazin-2-yl)-9,10-difluoro-2,4-dimethyl-1,2,4,4a-tetrahydro-2′H,6H-spiro[1,4-oxazino[4,3-a]quinoline-5,5′-pyrimidine]-2′,4′,6′(1′H,3′H)-trione] | 0.5 (≈ 1.09 µM) | 0.5 (≈ 1.09 µM)
Cc1cnc(-c2cc3c(c(F)c2F)N2C[C@@H](C)O[C@@H](C)[C@@H]2C2(C3)C(=O)NC(=O)NC2=O)cn1 [Compound 23, (2R,4S,4aS)-9,10-difluoro-2,4-dimethyl-8-(5-methylpyrazin-2-yl)-1,2,4,4a-tetrahydro-2′H,6H-spiro[1,4-oxazino[4,3-a]quinoline-5,5′-pyrimidine]-2′,4′,6′(1′H,3′H)-trione] | 1 (≈ 2.19 µM) | 0.125 (≈ 0.273 µM)
